Test results as given in PMC12281424, “A Rac-specific competitive inhibitor of guanine nucleotide binding reduces metastasis in triple-negative breast cancer” (Cell Reports Medicine, 2025).

Columns and labels:
[1] = tested on: MDA-MB-468 Luc cells; assay: Orthotopic breast cancer (TNBC xenograft) model; format: in vivo, mouse; conditions: 25 mg/kg/day i.p.
Protocol: The anti-metastatic potential of A41 was assessed in a TNBC xenograft model by orthotopic injection of MDA-MB-468 Luc cells into the mammary fat pad of […] Nordic Medical Research Institute (NMRI) nude mice randomized in 2 groups. The tumor grows gradually over time. At the 50th day post grafting, when a volume of ∼1,000 mm^3 was reached, the tumor was resected, which corresponded to tumor mass of approximately 0.6 g (Figure S8A). Mice were then treated with A41 (25 mg/kg/day, intraperitoneally; group 2) or vehicle for 4 weeks (group 1).
Figure 6 A41 decreases metastasis of TNBC cells in vivo (A) Representative images of luciferase bioluminescence intensities (BLI) in whole body, legs, and ovaries/uterus 4 weeks after resection of MD1-MB-468 Luc tumor in NMRI nude mice not treated (control) and treated with A41 (25 mg/kg/day, intraperitoneally for 4 weeks). (B) Metastasis frequency quantification based on ex vivo BLI measurements in indicated organs from control (black bars) and A41-treated mice 4 weeks after tumor resection (white bars) (N = 10–15 mice; ∗p < 0.05 vs. controls). (C) BLI quantification in legs and ovaries/uterus from control (black squares) and A41-treated (white squares) NMRI nude mice 4 weeks after tumor resection (N = 10–15 mice; ∗p < 0.05 vs. controls). (D) Cumulative proportion of immunocompetent control (red) and A41-treated mice (blue) displaying regrowth of the primary tumor after its resection. (E) Metastasis frequency quantified from ex vivo BLI measurements in leg bones, lungs, kidneys, and ovaries/uterus from immunocompetent control (black bar) and A41-treated (white bar) mice (N = 10 mice; ∗p < 0.05 vs. control). (F) Survival curve of immunocompetent control (red) and A41-treated mice (blue) after primary tumor resection (day 0).
Orthotopic cell xenograft was performed by injection of 4 million MDA-MB-468Luc cells in the fourth fat pad from 5-week-old NMRI nude mice. Primary tumour was allowed to develop during 5 weeks and tumour growth was assessed by tumour volume measurement using a caliper. Primary tumor was then removed by surgical exeresis and weighed. Treatments began 1 day before exeresis. A41 (25 mg/kg) was administered intraperitoneally on a daily basis during 4 weeks. Mice were weighed 5 times a week and in vivo bioluminescence intensities were measured once a week (Imager PerkinElmer IVIS spectrum bioluminescence imager). At the end of the protocol, mice were sacrificed and ex vivo bioluminescence intensities of indicated organs (legs, ovaries, uterus, lungs and liver) were measured within 15 min of D-luciferin intraperitoneal injection (150 mg kg−1). Photons emitted by cancer cells were counted by bioluminescent imaging and expressed in counts per minute (c.p.m.).

[2] = target: Adrenergic α1D (Homo sapiens, UniProt P25100); assay: Safety screen; format: binding
Protocol: (§1) Blood cell counts, kinase profiler, safety screen, bacterial cytotoxicity, Ames, micronucleus assays were performed by the company Eurofins (France).

[3] = target: Muscarinic M3 (Homo sapiens, UniProt P20309); assay: Safety screen; format: binding
Protocol: as §1

[4] = tested on: Transporter, GABA; assay: Safety screen; format: binding, rat
Protocol: as §1

[5] = target: ACTR2(h) (Homo sapiens, UniProt P27037); assay: Kinase Profiler; format: biochemical
Protocol: (§2) The kinase profiler was performed by the company Eurofins (Discovery, Panlab and Cerep).

[6] = target: AMPKα2(h) (Homo sapiens, UniProt P54646); assay: Kinase Profiler; format: biochemical
Protocol: (§3) Blood cell counts, kinase profiler, safety screen, bacterial cytotoxicity, Ames, micronucleus assays were performed by the company Eurofins (France). The kinase profiler was performed by the company Eurofins (Discovery, Panlab and Cerep).

[7] = target: Aurora-B(h) (Homo sapiens, UniProt Q96GD4); assay: Kinase Profiler; format: biochemical
Protocol: as §3

[8] = target: CaMKI(h) (Homo sapiens, UniProt Q14012); assay: Kinase Profiler; format: biochemical
Protocol: as §3

[9] = target: CDK2/cyclinE(h) (Homo sapiens, UniProt P24941); assay: Kinase Profiler; format: biochemical
Protocol: as §3

[10] = target: CDK9/cyclin T1(h) (Homo sapiens, UniProt P50750); assay: Kinase Profiler; format: biochemical
Protocol: as §3

[11] = target: CHK2(h) (Homo sapiens, UniProt O96017); assay: Kinase Profiler; format: biochemical
Protocol: as §2

[12] = target: CLK4(h) (Homo sapiens, UniProt Q9HAZ1); assay: Kinase Profiler; format: biochemical
Protocol: as §2

[13] = target: CSK(h) (Homo sapiens, UniProt P41240); assay: Kinase Profiler; format: biochemical
Protocol: as §2

[14] = target: DCAMKL3(h) (Homo sapiens, UniProt Q9C098); assay: Kinase Profiler; format: biochemical
Protocol: as §3

[15] = target: DYRK1B(h) (Homo sapiens, UniProt Q9Y463); assay: Kinase Profiler; format: biochemical
Protocol: as §2

[16] = target: eEF-2K(h) (Homo sapiens, UniProt O00418); assay: Kinase Profiler; format: biochemical
Protocol: as §2

[17] = target: EphA3(h) (Homo sapiens, UniProt P29320); assay: Kinase Profiler; format: biochemical
Protocol: as §3

[18] = target: ErbB2(h) (Homo sapiens, UniProt P04626); assay: Kinase Profiler; format: biochemical
Protocol: as §2

[19] = target: Flt1(h) (Homo sapiens, UniProt P17948); assay: Kinase Profiler; format: biochemical
Protocol: as §2

[20] = target: Fms(Y969C)(h) (Homo sapiens, UniProt P07333, Y969C); assay: Kinase Profiler; format: biochemical
Protocol: as §2

[21] = target: IKKβ(h) (Homo sapiens, UniProt O14920); assay: Kinase Profiler; format: biochemical
Protocol: as §3

[22] = target: MST1(h) (Homo sapiens, UniProt Q13043); assay: Kinase Profiler; format: biochemical
Protocol: as §3

[23] = target: mTOR/FKBP12(h) (Homo sapiens, UniProt P42345); assay: Kinase Profiler; format: biochemical
Protocol: as §2

[24] = target: PEK(h) (Homo sapiens, UniProt Q9NZJ5); assay: Kinase Profiler; format: biochemical
Protocol: as §2

[25] = target: Ret(h) (Homo sapiens, UniProt P07949); assay: Kinase Profiler; format: biochemical
Protocol: as §2

[26] = target: TAK1(h) (Homo sapiens, UniProt O43318); assay: Kinase Profiler; format: biochemical
Protocol: as §3

[27] = target: PI3K (p110d/p85a)(h) (Homo sapiens, UniProt O00329); assay: Kinase Profiler; format: biochemical
Protocol: as §3

AMPKα2(h), sequence (P54646 whole entry): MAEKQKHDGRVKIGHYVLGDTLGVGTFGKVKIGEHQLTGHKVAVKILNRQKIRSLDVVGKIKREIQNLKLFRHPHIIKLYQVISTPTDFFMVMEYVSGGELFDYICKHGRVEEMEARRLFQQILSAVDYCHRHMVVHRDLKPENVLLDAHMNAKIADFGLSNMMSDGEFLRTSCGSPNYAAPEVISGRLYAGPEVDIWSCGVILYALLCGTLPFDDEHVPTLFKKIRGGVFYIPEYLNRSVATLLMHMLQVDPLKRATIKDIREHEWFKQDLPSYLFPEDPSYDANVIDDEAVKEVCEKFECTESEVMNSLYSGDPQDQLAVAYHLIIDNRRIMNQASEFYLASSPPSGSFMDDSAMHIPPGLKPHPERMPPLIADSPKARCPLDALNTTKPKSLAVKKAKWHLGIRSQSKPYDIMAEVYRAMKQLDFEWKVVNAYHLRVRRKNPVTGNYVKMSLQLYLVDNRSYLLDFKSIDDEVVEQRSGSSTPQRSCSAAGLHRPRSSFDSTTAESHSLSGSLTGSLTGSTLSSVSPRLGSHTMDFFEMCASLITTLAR
AMPKα2(h), sequence (Q9Y478 whole entry partner): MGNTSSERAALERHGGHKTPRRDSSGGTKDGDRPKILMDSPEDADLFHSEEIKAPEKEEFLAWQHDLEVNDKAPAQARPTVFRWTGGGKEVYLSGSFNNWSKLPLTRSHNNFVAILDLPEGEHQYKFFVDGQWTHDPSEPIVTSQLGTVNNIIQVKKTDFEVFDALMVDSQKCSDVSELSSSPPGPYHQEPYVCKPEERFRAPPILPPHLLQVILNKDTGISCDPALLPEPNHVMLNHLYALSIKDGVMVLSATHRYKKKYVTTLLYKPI
AMPKα2(h), sequence (P54619 whole entry partner): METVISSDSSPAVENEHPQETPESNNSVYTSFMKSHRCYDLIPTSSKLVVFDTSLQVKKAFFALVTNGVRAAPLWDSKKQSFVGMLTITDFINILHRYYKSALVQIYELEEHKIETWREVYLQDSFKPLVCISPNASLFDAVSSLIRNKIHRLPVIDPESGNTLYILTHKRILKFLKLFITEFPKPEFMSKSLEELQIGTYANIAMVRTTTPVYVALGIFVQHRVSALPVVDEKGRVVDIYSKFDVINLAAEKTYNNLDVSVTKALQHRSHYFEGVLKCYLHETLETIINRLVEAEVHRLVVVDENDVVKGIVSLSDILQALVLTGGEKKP
CDK9/cyclin T1(h), sequence (P50750 whole entry): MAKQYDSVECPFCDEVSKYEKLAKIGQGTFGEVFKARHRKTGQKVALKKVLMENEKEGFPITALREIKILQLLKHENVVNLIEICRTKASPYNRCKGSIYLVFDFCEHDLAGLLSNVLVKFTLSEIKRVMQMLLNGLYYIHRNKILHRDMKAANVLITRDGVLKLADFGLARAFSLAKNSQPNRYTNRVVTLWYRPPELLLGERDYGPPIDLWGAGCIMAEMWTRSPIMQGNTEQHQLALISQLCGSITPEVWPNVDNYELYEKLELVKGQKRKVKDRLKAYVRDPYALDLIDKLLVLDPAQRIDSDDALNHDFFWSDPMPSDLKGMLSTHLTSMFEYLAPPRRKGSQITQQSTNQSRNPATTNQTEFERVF
CDK9/cyclin T1(h), sequence (O60563 whole entry partner): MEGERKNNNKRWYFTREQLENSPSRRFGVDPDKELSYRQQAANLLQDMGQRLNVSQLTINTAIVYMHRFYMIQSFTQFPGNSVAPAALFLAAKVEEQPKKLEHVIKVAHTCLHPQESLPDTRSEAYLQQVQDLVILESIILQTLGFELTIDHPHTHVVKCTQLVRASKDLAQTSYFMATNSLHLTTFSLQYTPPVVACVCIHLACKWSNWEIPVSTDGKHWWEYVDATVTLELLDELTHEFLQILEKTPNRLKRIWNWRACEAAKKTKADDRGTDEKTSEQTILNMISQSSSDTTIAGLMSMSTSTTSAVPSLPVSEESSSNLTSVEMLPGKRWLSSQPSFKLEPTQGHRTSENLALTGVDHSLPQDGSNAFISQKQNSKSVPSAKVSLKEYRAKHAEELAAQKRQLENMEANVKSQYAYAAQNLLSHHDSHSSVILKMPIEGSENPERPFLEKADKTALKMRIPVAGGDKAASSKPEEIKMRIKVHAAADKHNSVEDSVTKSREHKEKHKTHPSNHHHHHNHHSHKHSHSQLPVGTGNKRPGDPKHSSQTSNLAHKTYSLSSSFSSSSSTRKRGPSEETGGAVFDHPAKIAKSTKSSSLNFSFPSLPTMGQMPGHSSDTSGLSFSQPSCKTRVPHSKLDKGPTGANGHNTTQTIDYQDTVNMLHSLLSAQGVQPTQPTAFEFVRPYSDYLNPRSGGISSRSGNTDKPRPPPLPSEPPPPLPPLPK
IKKβ(h), sequence (O14920 whole entry): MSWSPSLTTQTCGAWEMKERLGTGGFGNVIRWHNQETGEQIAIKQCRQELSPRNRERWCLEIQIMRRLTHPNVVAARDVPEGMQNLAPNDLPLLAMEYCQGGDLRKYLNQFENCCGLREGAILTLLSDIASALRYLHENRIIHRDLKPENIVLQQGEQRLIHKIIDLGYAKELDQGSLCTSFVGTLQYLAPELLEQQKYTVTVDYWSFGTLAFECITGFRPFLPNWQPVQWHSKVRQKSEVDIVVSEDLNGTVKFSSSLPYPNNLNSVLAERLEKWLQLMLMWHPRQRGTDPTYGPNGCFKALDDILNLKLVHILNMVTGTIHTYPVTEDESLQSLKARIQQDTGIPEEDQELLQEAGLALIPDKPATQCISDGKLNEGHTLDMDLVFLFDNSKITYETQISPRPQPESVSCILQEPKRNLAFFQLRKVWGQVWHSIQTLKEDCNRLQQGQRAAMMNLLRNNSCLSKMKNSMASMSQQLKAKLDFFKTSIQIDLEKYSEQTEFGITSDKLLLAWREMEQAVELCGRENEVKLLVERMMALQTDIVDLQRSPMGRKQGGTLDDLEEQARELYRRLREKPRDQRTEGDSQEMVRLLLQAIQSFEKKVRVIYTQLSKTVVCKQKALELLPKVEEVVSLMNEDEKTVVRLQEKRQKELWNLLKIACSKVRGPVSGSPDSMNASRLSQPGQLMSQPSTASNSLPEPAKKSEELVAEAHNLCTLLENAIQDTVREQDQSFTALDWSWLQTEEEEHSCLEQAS
eEF-2K(h), sequence (O00418 whole entry): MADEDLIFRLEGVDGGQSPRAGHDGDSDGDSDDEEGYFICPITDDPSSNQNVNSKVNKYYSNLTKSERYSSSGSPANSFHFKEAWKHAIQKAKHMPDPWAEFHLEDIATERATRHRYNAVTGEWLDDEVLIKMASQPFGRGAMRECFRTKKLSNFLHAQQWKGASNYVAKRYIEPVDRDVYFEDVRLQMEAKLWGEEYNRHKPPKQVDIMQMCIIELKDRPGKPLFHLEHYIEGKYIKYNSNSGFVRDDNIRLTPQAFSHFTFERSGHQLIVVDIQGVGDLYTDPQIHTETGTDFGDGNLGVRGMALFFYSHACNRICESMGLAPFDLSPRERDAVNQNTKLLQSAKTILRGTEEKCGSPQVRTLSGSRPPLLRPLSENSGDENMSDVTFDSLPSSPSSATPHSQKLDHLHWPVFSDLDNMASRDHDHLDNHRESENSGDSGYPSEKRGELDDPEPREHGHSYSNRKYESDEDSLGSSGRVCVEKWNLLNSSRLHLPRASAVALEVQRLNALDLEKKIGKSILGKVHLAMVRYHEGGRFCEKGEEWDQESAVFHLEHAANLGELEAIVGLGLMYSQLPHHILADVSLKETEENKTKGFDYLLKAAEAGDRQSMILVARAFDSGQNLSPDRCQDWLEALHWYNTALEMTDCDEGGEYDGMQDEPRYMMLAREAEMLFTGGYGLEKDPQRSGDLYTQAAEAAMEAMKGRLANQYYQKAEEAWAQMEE
PEK(h), sequence (Q9NZJ5 30-1116): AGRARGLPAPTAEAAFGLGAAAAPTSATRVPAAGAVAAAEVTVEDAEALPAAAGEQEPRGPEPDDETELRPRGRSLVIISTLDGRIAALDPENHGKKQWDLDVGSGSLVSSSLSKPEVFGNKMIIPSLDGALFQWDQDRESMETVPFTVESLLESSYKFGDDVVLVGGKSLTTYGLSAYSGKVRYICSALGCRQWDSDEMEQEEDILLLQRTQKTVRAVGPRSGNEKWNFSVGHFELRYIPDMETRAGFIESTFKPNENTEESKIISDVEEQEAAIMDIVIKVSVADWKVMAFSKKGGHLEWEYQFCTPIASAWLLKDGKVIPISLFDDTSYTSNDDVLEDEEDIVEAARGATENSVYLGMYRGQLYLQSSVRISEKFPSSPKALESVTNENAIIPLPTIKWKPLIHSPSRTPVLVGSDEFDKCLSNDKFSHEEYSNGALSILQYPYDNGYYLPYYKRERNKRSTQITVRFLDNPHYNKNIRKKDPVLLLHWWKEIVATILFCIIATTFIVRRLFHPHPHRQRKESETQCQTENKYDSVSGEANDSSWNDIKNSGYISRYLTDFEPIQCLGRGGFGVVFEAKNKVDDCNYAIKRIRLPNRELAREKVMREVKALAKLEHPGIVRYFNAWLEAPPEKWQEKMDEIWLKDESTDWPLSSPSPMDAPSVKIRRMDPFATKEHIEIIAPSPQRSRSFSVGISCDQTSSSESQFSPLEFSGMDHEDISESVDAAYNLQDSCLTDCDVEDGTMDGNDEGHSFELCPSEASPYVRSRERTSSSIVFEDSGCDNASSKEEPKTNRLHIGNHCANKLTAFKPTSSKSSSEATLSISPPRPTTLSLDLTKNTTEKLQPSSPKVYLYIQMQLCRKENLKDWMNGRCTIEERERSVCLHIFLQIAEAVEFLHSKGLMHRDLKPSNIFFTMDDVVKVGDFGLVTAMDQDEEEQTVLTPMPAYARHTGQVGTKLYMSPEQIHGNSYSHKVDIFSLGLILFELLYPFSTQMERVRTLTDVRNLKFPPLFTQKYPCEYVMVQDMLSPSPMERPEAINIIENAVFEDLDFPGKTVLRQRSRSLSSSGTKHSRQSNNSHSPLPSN

## COc1ccc(OC)c(NS(=O)(=O)c2ccc(NC(=O)CCSc3ccc(C)cc3)cc2)c1 [Compound A41]
[1]; 4 weeks after resection
  primary tumor regrowth (in vivo BLI): decrease in primary tumor regrowth
[1]; 4 weeks post resection
  ex vivo luminescence intensity of femur, ovaries, and uterus: significantly lower in A41-treated than in control mice
  metastasis frequency (leg bones, lungs, kidneys, ovaries, uterus; ex vivo BLI): significantly higher frequency in control than in A41-treated mice
[1]; 4 weeks, vs vehicle
  weight of the mice: no difference between the two groups
[2]
  % inh.: 21%
[3]
  % inh.: 4%
[4]
  % inh.: -4%
[5]
  Activity(%): 108%
[6]
  Activity(%): 111%
[7]
  Activity(%): 86%
[8]
  Activity(%): 114%
[9]
  Activity(%): 100%
[10]
  Activity(%): 92%
[11]
  Activity(%): 111%
[12]
  Activity(%): 102%
[13]
  Activity(%): 119%
[14]
  Activity(%): 104%
[15]
  Activity(%): 96%
[16]
  Activity(%): 97%
[17]
  Activity(%): 139%
[18]
  Activity(%): 116%
[19]
  Activity(%): 103%
[20]
  Activity(%): 107%
[21]
  Activity(%): 110%
[22]
  Activity(%): 96%
[23]
  Activity(%): 104%
[24]
  Activity(%): 102%
[25]
  Activity(%): 104%
[26]
  Activity(%): 107%
[27]
  Activity(%): 100%
